One data set relates to cerebral cortex neurons. The note with it: TAF1-edited animals. How it is done: (§1) After weaning, the rat pups were separated from the dams and maintained 4 per cage. Animals were divided into six groups. […] Rats were sacrificed at PD35. Animals were behaviorally assessed before being euthanized for histological and protein expression analysis. All biochemical, electrophysiology, and behavior experiments were performed in a blinded fashion. Animal protocols were approved by the Institutional Animal Care and Use Committee of the College of Medicine at the University of Arizona and conducted in accordance with the Guide for Care and Use of Laboratory Animals published by the National Institutes of Health.
(§2) Intracerebroventricular injections: Bilateral intracerebroventricular (ICV) injections were performed as previously described in Sprague-Dawley (SD) rat pups on postnatal day 3. Briefly, newborn SD rat puts were anesthetized by isoflurane. A 10 μl syringe (Hamilton Gastight Syringe, #1701) was used to pierce the skull (coordinates from bregma: −0.6 mm posterior, ±1.75 mm lateral/medial, and −2.5 mm ventral), and 2.5 μl of CRISPR lentivirus (gRNA-control or gRNA-TAF1) was injected into each cerebral ventricle without opening the scalp. Neonatal rat pups were kept with the dam until weaned.

The test system of the next data set is cerebral cortex. The note with it: TAF1 edited animals; SAK3 0.25 mg/kg p.o. Here is the method: as §1, §2
For the next data set, the system named is TAF1-edited animals. Here is the method:
as §1, §2

Data set [1] relates to TAF1 Intellectual Disability Syndrome.
Source text: A child is brought by their parent to see their pediatrician for a routine childhood check-up. During the check-up, the pediatrician notices some minor motor deficits in the child. The pediatrician communicates their concerns about the child to their parent. […] A week later, the child is taken in for genetic testing. A month later, the child is brought back to the pediatrician's office so that the pediatrician may discuss the genetic testing results with their parents.
The test system of data set [2] is BDNF. The note with it: TAF1 edited animals; SAK3 0.25 mg/kg p.o. How it is done: as §1, §2
(§3) Rats (n=6 animals per experimental condition) were perfused with saline, and 4% formaldehyde in phosphate buffer saline (PBS) at PD 35, and the brains were extracted and post-fixed in 4% paraformaldehyde for 8 hours at 4° C. Cerebral cortex sections were cut sagittally at 20 μm using a cryostat (Microm HM 505 E). After rinsing the sections in PBS for 5 min, the sections were incubated with a 0.1% H2O2 solution in PBS for 5 min, rinsed in PBS for 5 times for 5 min, and incubated for 30 min with 0.4% Triton X-100, rinsed in PBS and blocked with 8% goat serum and 1% Triton X-100 in PBS. After blocking, the sections were incubated at 4° C. overnight with the indicated antibodies diluted in 4% goat serum in PBS. The sections were washed in 1% goat serum in PBS, incubated with secondary antibody anti-rabbit Alexa fluor 488 (Life Technologies) or anti-mouse Alexa fluor 488 (Life Technologies), as needed, in 4% goat serum for 2 h, washed with PBS 3 times for 5 mins, and incubated with DAPI (Catalogue No: D1306, Thermofisher Scientific) at a concentration of 50 ng/ml for 2 mins. Sections were then washed and further air dried, and coverslip with glycerol.

Data set [3] relates to AKT (phosphorylated at Ser 473). Conditions: cortex of TAF-1 edited animals; SAK3 0.25 mg/kg p.o. How it is done:
as §1, §2, §3

Another data set relates to GFAP-positive astrocytes. Conditions: TAF1-edited animals; SAK3 0.25 mg/kg p.o.; vs TAF1 edited group. Here is the method: as §1, §2, §3
In another data set the test system is CaV3.1 T-type channel. The note with it: TAF-1 edited animals; SAK3 0.25 mg/kg p.o. Here is the method: as §1, §2, §3
The test system of a further data set is Iba1-positive microglia. The note with it: TAF1-edited animals; SAK3 0.25 mg/kg p.o.; vs TAF1 edited group. Here is the method:
as §1, §2, §3

In data set [4] the test system is BDNF. Conditions: TAF1 edited animals; cerebral cortex samples; SAK3 0.25 mg/kg p.o. How it is done:
as §1, §2
(§4) Western blotting analysis: After decapitation of animals, brain tissue from the cerebellum was dissected, snap frozen in liquid nitrogen prior to storage at −80° C. until analysis. Western blot analyses were performed as described in Janakiraman et al (Janakiraman, U., Yu, J., Moutal, A., Chinnasamy, D., Boinon, L., Batchelor, S. N., Anandhan, A., Khanna, R., and Nelson, M. A. (2019) TAF1-gene editing alters the morphology and function of the cerebellum and cerebral cortex. Neurobiol Dis 132, 104539). In brief, frozen samples were homogenized with a RIPA buffer and centrifuged at 4 °C, 20,000xg for 20 min. Supernatant protein concentrations were determined using BCA method (Catalog No: #23227, Thermo Scientific), and samples were then boiled 5 min in Laemmli's sample buffer (Catalog No: NP0008, Life Technologies). Equal amounts of protein were loaded onto and run on SDS-polyacrylamide gels (Catalog No: #4568084, Bio-Rad) and then transferred to polyvinylidene difluoride membrane (Catalog No: #1620177, Bio-Rad). After transfer, membranes were blocked with TBST solution (50 mM Tris-HCl, pH 7.5, 150 mM NaCl, and 0.1% Tween 20) containing 5% non-fat dry milk at 4 °C for 1 hour. After blocking membranes were incubated overnight at 4° C. with anti-CaMKII (pan) (1:500; Cell Signaling), anti-phospho-CaMKII (Thr-286) (1:1000; Cell Signaling), anti-cleaved caspase-3 (Asp175) (1:1000; Cell Signaling), anti-Bax (1:1000; Cell Signaling) anti-Bcl-2 (1:1000; Abcam), anti-phospho-GSK3p(Ser9) (1:1000; Cell Signaling), anti-GSK3p (1:1000; Cell Signaling), anti-BDNF (1:750; Abcam), anti-Foxp2 (1:1000; Abcam), anti-CRMP2 pThr509/Thr514 (1:1000; Kina Source Limited), anti-CRMP2 (1:1000; Sigma), and 6111-Tubulin (1:1000; Promega) in 3% BSA.

The subject of another data set is cleaved caspase 3. The note with it: TAF1 edited animals; SAK3 0.25 mg/kg p.o.; Western. Here is the method: as §1, §2, §4
Data set [5] has as its system B-cell lymphoma 2 (BcI-2). The note with it: TAF1 edited animals; SAK3 0.25 mg/kg p.o.; Western. How it is done: as §1, §2, §4
A further data set relates to p-CaMKII. The note with it: cerebellum of TAF1 edited animals; SAK3 0.25 mg/kg p.o. How it is done:
as §1, §2, §4

In another data set the test system is Phospho (Ser 9)-GSK3β. Conditions: SAK3 0.25 mg/kg p.o. Here is the method:
as §1, §2, §4

For data set [6], the system named is phospho-CRMP2 (Thr 509/514). The note with it: TAF1 edited animals; SAK3 0.25 mg/kg p.o. Here is the method:
as §1, §2, §4

For another data set, the system named is BCL2 Associated X (BAX). The note with it: TAF1 edited animals; SAK3 0.25 mg/kg p.o.; Western. How it is done:
as §1, §2, §4

Another data set deals with FOXP2. Conditions: TAF1-edited animals; SAK3 0.25 mg/kg p.o. How it is done: as §1, §2, §4
In data set [7] the test system is gRNA-TAF1 edited Purkinje cells. Conditions: gRNA-TAF1 edited Purkinje cells in cerebellar slices. How it is done: as §2
Where [8] appears, read: SAK3 0.25 mg/kg p.o. PD21 to PD35, vs TAF1-edited animals.

The values below come from patent US20230233544A1, “T-TYPE CALCIUM CHANNEL ENHANCER FOR TREATING TAF1 ASSOCIATED NEUROLOGICAL DEFECTS” (ARIZONA BOARD OF REGENTS ON BEHALF OF THE UNIVERSITY OF …, priority 2020, published 2023).

Turning to `CCOC(=O)C1=C(N2CCCCC2)C2(CC1=O)C(=O)N=C1C(C)=CC=CN12` (stereo not drawn) [SAK3, ethyl 8′-methyl-2′, 4-dioxo-2-(piperidin-1-yl)-2′H-spiro [cyclopent[2]ene-1,3′-imidazo[1,2-a]pyridine]-3-carboxylate], the “Morphology of the cells in the cortex (Nissl staining)” value in the data set with cerebral cortex neurons (SAK3 0.25 mg/kg p.o. PD21 to PD35) was “improved the morphology of the cells in the cortex”. For the same compound, the “Number of viable cells in the cerebral cortex” value in the data set with cerebral cortex neurons (SAK3 0.25 mg/kg p.o., vs TAF1-edited animals) was “increased the number of viable cells”. In the data set with cerebral cortex, the “Number of TUNEL positive cells” value is given as “reduced the number of TUNEL positive cells to control levels”. The “Grooming frequency (number of groomings)” value with TAF1-edited animals (SAK3 0.25 mg/kg p.o. PD21 to PD35, open field 5 min) is “blunted by SAK3 treatment”. In addition, in the data set with TAF1-edited animals (setting [8]), the Beam crossing time result was “rescue of the beam crossing time”; the “Number of foot slip errors” value is “rescue of the beam crossing time and foot slip errors”. The “Motor skills and cognitive abilities” value in data set [1] (child with TAF1 ID syndrome, SAK3 composition orally, after six months) is “improved motor skills and cognitive abilities”. Besides, the Side effects result in data set [1] (in vivo, po) is listed as “No side effects reported”. In addition, the “BDNF expression (immunofluorescence, BDNF-positive cells)” value with BDNF [2] is “restored BDNF expression to the levels in Naïve and gRNA-control groups”. In data set [3], the “Activated AKT (phosphorylated at Ser 473) expression” value is recorded as “prevented by SAK3 treatment”. Further, the “Number of GFAP-positive cells” value in the data set with GFAP-positive astrocytes was “increase the number of GFAP-positive cells”. Further, the “CaV3.1 T-type channel expression” value in the data set with CaV3.1 T-type channel was “restored by SAK3 treatment”. In the data set with Iba1-positive microglia, the “Number of Iba1-positive cells” value is “decrease the number of Iba1-positive cells”. The “BDNF expression (Western analysis)” value in the data set on BDNF [4] was “restored BDNF expression to the levels in Naïve and gRNA-control groups”. In addition, in the data set on cleaved caspase 3, the “Activated (cleaved) caspase 3 level” value was “downregulation of activated caspase 3”. In addition, in data set [5], the Bcl-2 level entry is listed as “up-regulation of B-cell lymphoma 2 (BcI-2)”. In addition, the “CaMKII activation (phosphorylation at T286)” value in the data set with p-CaMKII is reported as “restoration of CaMKII activation in the cerebellum of SAK3 treated animals was not observed”. Moreover, the “Phospho (Ser 9)-GSK3β levels” value with Phospho (Ser 9)-GSK3β (TAF1 edited animals, cerebral cortex samples) was “increased phopho-GSK3β levels”. In addition, the p-GSK3β levels entry in the data set with Phospho (Ser 9)-GSK3β (gRNA-TAF1 edited animals, cerebellum samples) is reported as “rescued by SAK3 treatment”. Also, the “phospho-CRMP2 (Thr 509/514) levels” value in [6] was “restored phospho-CRMP2 levels”. In addition, in the data set with BCL2 Associated X (BAX), the BAX level entry is listed as “downregulation of the pro-apoptotic factor BCL2 Associated X (BAX)”. The FOXP2 levels entry in the data set on FOXP2 was “restored FOXP2”. The “Amplitudes of sEPSC” value in data set [7] (SAK3 0.1 nM) is reported as “No changes”. Further, the “Frequency of sEPSC” value in data set [7] (SAK3 0.1 nM in perfusion, held at −70 mV, mean±S.E.M.) was determined as 2.13±0.29 Hz.
